Reference: patent US20190047966A1, “NOVEL COMPOUND AND PHARMACOLOGICALLY ACCEPTABLE SALT THEREOF” (MEIJI SEIKA PHARMA CO., LTD., priority 2016, published 2019)
Where a name gives a salt, the structure may show the parent alone.

Legend:
[1] = molecular target: T1, human histamine H4 receptor (Homo sapiens, UniProt Q9H3N8); experiment: Evaluation of Human H4 Receptor Affinity ([3H]histamine binding); conditions: inhibition constant Ki, CHO-K1 membrane preparation, read-out: Evaluation of H4 Receptor Affinity
T1 construct: purchased PerkinElmer Inc; host or cells: CHO-K1
Description: Test Example 2: Evaluation of Human H4 Receptor Affinity
Membrane preparation from recombinant CHO-K1 cell expressing the human histamine H4 receptor (PerkinElmer Inc.), radiolabeled ligand 8.2 nM [^3H]histamine (PerkinElmer Inc.), and compounds dissolved in DMSO were reacted at 25° C. for 90 minutes in a buffering solution containing 50 mM tris-hydrochloric acid, pH 7.4, and 1.25 mM EDTA on a 96 well plate, followed by filtration using a GF/B filter (PerkinElmer Inc.) pretreated with 0.3% polyethylenimine. The residue was washed four times with a buffering solution of 50 mM tris-hydrochloric acid, pH 7.4. Thereafter, a scintillation cocktail (MicroScint 20: PerkinElmer Inc.) was added to the GF/B filter, and the radioactivity of each well was measured using a liquid scintillation counter for 96-well (TopCount: PerkinElmer Inc.). The non-specific binding was evaluated in the presence of 1.0 μM histamine. The inhibition constant Ki was calculated from the 50% inhibitory concentration (IC50 value) obtained in each test and the Kd value (5.7 nM) unique to this assay system, according to the Cheng-Prusoff equation.

[2] = molecular target: human histamine H1 receptor (Homo sapiens, UniProt P35367); experiment: Evaluation of Human H1 Receptor Affinity ([3H]pyrilamine binding); design: purchased PerkinElmer Inc; host or cells: CHO-K1; conditions: inhibition constant Ki, CHO-K1 membrane preparation
human histamine H1 receptor, sequence (P35367 whole entry): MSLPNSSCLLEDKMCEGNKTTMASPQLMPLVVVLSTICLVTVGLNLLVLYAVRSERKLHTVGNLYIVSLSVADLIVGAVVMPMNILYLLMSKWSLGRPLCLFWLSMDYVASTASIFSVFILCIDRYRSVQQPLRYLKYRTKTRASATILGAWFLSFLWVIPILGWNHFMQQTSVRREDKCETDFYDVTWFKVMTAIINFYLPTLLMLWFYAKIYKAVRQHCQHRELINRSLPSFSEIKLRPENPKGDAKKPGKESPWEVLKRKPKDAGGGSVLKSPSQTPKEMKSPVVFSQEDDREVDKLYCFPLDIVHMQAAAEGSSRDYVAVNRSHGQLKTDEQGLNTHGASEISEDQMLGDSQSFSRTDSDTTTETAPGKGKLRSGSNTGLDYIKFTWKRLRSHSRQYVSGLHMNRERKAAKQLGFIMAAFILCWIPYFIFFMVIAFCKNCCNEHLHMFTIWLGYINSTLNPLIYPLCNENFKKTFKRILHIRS
Description: Test Example 1: Evaluation of Human H1 Receptor Affinity
Membrane preparation from recombinant CHO-K1 cell expressing the human histamine H1 receptor (PerkinElmer Inc.), radiolabeled ligand 1.2 nM [^3H]pyrilamine (PerkinElmer Inc.), and test compounds dissolved in DMSO were reacted at 25° C. for 3 hours in a buffering solution containing 50 mM tris-hydrochloric acid, pH 7.4, and 5 mM magnesium chloride on a 96 well plate, followed by filtration using a GF/B filter (PerkinElmer Inc.) pretreated with 0.3% polyethylenimine. The residue was washed four times with a buffering solution of 50 mM tris-hydrochloric acid, pH 7.4. Thereafter, a scintillation cocktail (MicroScint 20: PerkinElmer Inc.) was added to the GF/B filter, and the radioactivity of each well was measured using a liquid scintillation counter for 96-well (TopCount: PerkinElmer Inc.). The non-specific binding was evaluated in the presence of 1.0 μM pyrilamine. The inhibition constant Ki was calculated from the 50% inhibitory concentration (IC50 value) obtained in each test and the Kd value (1.1 nM) unique to this assay system, according to the Cheng-Prusoff equation.

Row | Molecule | Ki [1] [µM] | Ki [2] [µM]
1 | COC(=O)C1CN(C(=O)OCCN2CCN(c3nc(N)nc4c3CCc3cc(OCc5ccc(Cl)cc5)ccc3-4)CC2)C1 [Example 150, 1-(2-(4-(2-amino-8-((4-chlorobenzyl)oxy)-5,6-dihydrobenzo[h]quinazolin-4-yl)piperazin-1-yl)ethyl) 3-methyl azetidine-1,3-dicarboxylate] | 0.1 to 0.5 | < 0.1
2 | CN1CCN(c2nc(N)nc3c2CCc2cc(NS(=O)(=O)N4CCC(F)(F)CC4)ccc2-3)CC1 [Example 194, N-(2-amino-4-(4-methylpiperazin-1-yl)-5,6-dihydrobenzo[h]quinazolin-8-yl)-4,4-difluoropiperidine-1-sulfonamide] | 0.1 to 0.5 | 0.1 to 0.5
3 | Nc1nc2c(c(N3CCN(CCOCC4CC(C(=O)O)C4)CC3)n1)CCc1cc(OCc3ccc(Cl)cc3)ccc1-2 (stereo not drawn) [Example 169, cis- or trans-3-((2-(4-(2-amino-8-((4-chlorobenzyl)oxy)-5,6-dihydrobenzo[h]quinazolin-4-yl)piperazin-1-yl)ethoxy)methyl)cyclobutane-1-carboxylic acid] | 0.1 to 0.5 | < 0.1
4 | COC(=O)CC1CN(C(=O)OCCN2CCN(c3nc(N)nc4c3CCc3cc(OCc5ccc(Cl)cc5)ccc3-4)CC2)C1 [Example 149, 2-(4-(2-amino-8-((4-chlorobenzyl)oxy)-5,6-dihydrobenzo[h]quinazolin-4-yl)piperazin-1-yl)ethyl 3-(2-methoxy-2-oxoethyl)azetidine-1-carboxylate] | 0.1 to 0.5 | < 0.1
5 | Nc1nc2c(c(N3CCN(CC(=O)NCCCC(=O)O)CC3)n1)CCc1cc(OCc3ccc(Cl)cc3)ccc1-2 [Example 125, 4-(2-(4-(2-amino-8-((4-chlorobenzyl)oxy)-5,6-dihydrobenzo[h]quinazolin-4-yl)piperazin-1-yl)acetamido)butanoic acid dihydrochloride] | 0.1 to 0.5 | < 0.1
6 | cis-3-(2-(4-(2-amino-8-((4-((trifluoromethyl)cyclohexyl)methoxy)-5,6-dihydrobenzo[h]quinazolin-4-yl)piperazin-1-yl)ethoxy)cyclobutane-l-carboxylic acid [Example 215] | 0.1 to 0.5 | < 0.1
7 | Nc1nc2c(c(N3CCN(CCOC[C@@H]4CC[C@H](C(=O)O)O4)CC3)n1)CCc1cc(OCc3ccc(Cl)cc3)ccc1-2 (relative stereo) [Example 171, cis-5-((2-(4-(2-amino-8-((4-chlorobenzyl)oxy)-5,6-dihydrobenzo[h]quinazolin-4-yl)piperazin-1-yl)ethoxy)methyl)tetrahydrofuran-2-carboxylic acid] | 0.1 to 0.5 | < 0.1
8 | Nc1nc2c(c(N3CCN(CCOc4ccccc4CC(=O)O)CC3)n1)CCc1cc(OCc3ccc(Cl)cc3)ccc1-2 [Example 136, 2-(2-(2-(4-(2-amino-8-((4-chlorobenzyl)oxy)-5,6-dihydrobenzo[h]quinazolin-4-yl)piperazin-1-yl)ethoxy)phenyl)acetic acid dihydrochloride] | 0.1 to 0.5 | < 0.1
9 | CC(OCCCCN1CCN(c2nc(N)nc3c2CCc2cc(OCc4ccc(Cl)cc4)ccc2-3)CC1)C(=O)O (stereo not shown) [Example 123, 2-(4-(4-(2-amino-8-((4-chlorobenzyl)oxy)-5,6-dihydrobenzo[h]quinazolin-4-yl)piperazin-1-yl)butoxy)propanoic acid] | 0.1 to 0.5 | < 0.1
10 | CN1CCN(c2nc(N)nc3c2CCc2cc(NS(=O)(=O)c4ccc(Cl)nc4)ccc2-3)CC1 [Example 49, N-(2-amino-4-(4-methylpiperazin-1-yl)-5,6-dihydrobenzo[h]quinazolin-8-yl)-6-chloropyridine-3-sulfonamide] | 0.1 to 0.5 | 0.1 to 0.5
11 | Nc1nc2c(c(N3CCN(CCO[C@@H]4C[C@@H]5[C@H](C4)[C@@H]5C(=O)O)CC3)n1)CCc1cc(OCc3ccc(OC(F)(F)F)cc3)ccc1-2 [Example 148, (1R,3s,5S,6s)-3-(2-(4-(2-amino-8-((4-(trifluoromethoxy)benzyl)oxy)-5,6-dihydrobenzo[h]quinazolin-4-yl)piperazin-1-yl)ethoxy)bicyclo[3.1.0]hexane-6-carboxylic acid] | 0.1 to 0.5 | < 0.1
12 | Nc1nc2c(c(N3CCN(CCOCC4(O)CCC(C(=O)O)CC4)CC3)n1)CCc1cc(OCc3ccc(Cl)cc3)ccc1-2 (stereo not drawn) [166(b), cis- or trans-4-((2-(4-(2-amino-8-((4-chlorobenzyl)oxy)-5,6-dihydrobenzo[h]quinazolin-4-yl)piperazin-1-yl)ethoxy)methyl)-4-hydroxycyclohexane-1-carboxylic acid] | 0.1 to 0.5 | < 0.1

Further lines, results first:

Row | Ki [1] [µM] | Ki [2] [µM] | Molecule
13 | < 0.1 | < 0.1 | CN1CCN(c2nc(N)nc3c2CCc2cc(OCc4ccc(OC(F)(F)F)cc4)ccc2-3)CC1 [Example 198, 4-(4-methylpiperazin-1-yl)-8-((4-(trifluoromethoxy)benzyl)oxy)-5,6-dihydrobenzo[h]quinazolin-2-amine]
14 | < 0.1 | < 0.1 | NCCOCCOCCN1CCN(c2nc(N)nc3c2CCc2cc(OCc4ccc(Cl)cc4)ccc2-3)CC1 [Example 118, 4-(4-(2-(2-(2-aminoethoxy)ethoxy)ethyl)piperazin-1-yl)-8-((4-chlorobenzyl)oxy)-5,6-dihydrobenzo[h]quinazolin-2-amine]
15 | < 0.1 | < 0.1 | COC(=O)[C@@H]1CC[C@H](COCCN2CCN(c3nc(N)nc4c3CCc3cc(OCc5ccc(Cl)cc5)ccc3-4)CC2)C1 (relative stereo) [153(a), methyl cis-3-((2-(4-(2-amino-8-((4-chlorobenzyl)oxy)-5,6-dihydrobenzo[h]quinazolin-4-yl)piperazin-1-yl)ethoxy)methyl)cyclopentane-l-carboxylate]
16 | < 0.1 | 0.1 to 0.5 | CN[C@H]1CCN(c2nc(N)nc3c2CCc2cc(OCc4ccccc4)ccc2-3)C1 [Example 101, (S)-8-(benzyloxy)-4-(3-(methylamino)pyrrolidin-1-yl)-5,6-dihydrobenzo[h]quinazolin-2-amine]
17 | < 0.1 | < 0.1 | Nc1nc2c(c(N3CCN(CCOCCn4cc(C(=O)O)cn4)CC3)n1)CCc1cc(OCc3ccc(Cl)cc3)ccc1-2 [Example 133, 1-(2-(2-(4-(2-amino-8-((4-chlorobenzyl)oxy)-5,6-dihydrobenzo[h]quinazolin-4-yl)piperazin-1-yl)ethoxy)ethyl)-1H-pyrazole-4-carboxylic acid dihydrochloride]
18 | < 0.1 | < 0.1 | COC(=O)c1cccc(COCCN2CCN(c3nc(N)nc4c3CCc3cc(OCc5ccc(Cl)cc5)ccc3-4)CC2)n1 [18(a), methyl 6-((2-(4-(2-amino-8-((4-chlorobenzyl)oxy)-5,6-dihydrobenzo[h]quinazolin-4-yl)piperazin-1-yl)ethoxy)methyl)picolinate]
19 | < 0.1 | < 0.1 | CC1(C(=O)O)CCC(OCCN2CCN(c3nc(N)nc4c3CCc3cc(OCc5ccc(Cl)cc5)ccc3-4)CC2)CC1 (stereo not shown) [Example 161, 4-(2-(4-(2-amino-8-((4-chlorobenzyl)oxy)-5,6-dihydrobenzo[h]quinazolin-4-yl)piperazin-1-yl)ethoxy)-1-methylcyclohexane-1-carboxylic acid]
20 | < 0.1 | < 0.1 | N#CC1(C(=O)O)CCC(COCCN2CCN(c3nc(N)nc4c3CCc3cc(OCc5ccc(Cl)cc5)ccc3-4)CC2)CC1 (stereo not drawn) [160(b), trans- or cis-4-((2-(4-(2-amino-8-((4-chlorobenzyl)oxy)-5,6-dihydrobenzo[h]quinazolin-4-yl)piperazin-1-yl)ethoxy)methyl)-1-cyanocyclohexane-1-carboxylic acid]
21 | < 0.1 | < 0.1 | CCC(OCCOCCN1CCN(c2nc(N)nc3c2CCc2cc(OCc4ccc(Cl)cc4)ccc2-3)CC1)C(=O)O (stereo not shown) [Example 126, 2-(2-(2-(4-(2-amino-8-((4-chlorobenzyl)oxy)-5,6-dihydrobenzo[h]quinazolin-4-yl)piperazin-1-yl)ethoxy)ethoxy)butanoic acid]
22 | < 0.1 | < 0.1 | Nc1nc2c(c(N3CCN(CCO[C@H]4C[C@@H](C(=O)O)C4)CC3)n1)CCc1cc(OCc3ccc(S(=O)(=O)C(F)(F)F)cc3)ccc1-2 [Example 212, cis-3-(2-(4-(2-amino-8-((4-((trifluoromethyl)sulfonyl)benzyl)oxy)-5,6-dihydrobenzo[h]quinazolin-4-yl)piperazin-1-yl)ethoxy)cyclobutane-l-carboxylic acid]
23 | < 0.1 | < 0.1 | CN1CCN(c2nc(N)nc3c2oc2ccc(OCc4ccccc4)cc23)CC1 [Example 203, 8-(benzyloxy)-4-(4-methylpiperazin-1-yl)benzofuro[3,2-d]pyrimidin-2-amine]
